Assay results reported in patent US6613506B1, “Compositions and methods for inhibiting human immunodeficiency virus infection by down-regulating human cellular genes” (Subsidiary No. 3, Inc., priority 2000, dated 2003).

Key:
OM10.1 cells = type: cell-based; details: human, 24 h, 100 nM
[1] = system: latent HIV provirus in OM10.1 cells; test: Induction of latent HIV provirus by TNF-α in OM10.1 cells (CD4 retention, p24); type: cell-based, HIV-1
Procedure: In order to determine p24 expression in HIV-infected cells, the cells were first washed twice with Assay Buffer. About 10^6 cells were suspended in 100 μL Assay Buffer, mixed with 2 mL of Ortho PermeaFix Solution (available from Ortho Diagnostics), and incubated for 40 min. at room temperature. After centrifugation at 1200 rpm for 4 min. at 4EC, the cells were resuspended in 2 mL Wash Buffer (500 mL PBS, 25 mL fetal bovine serum, 1.5% bovine serum albumin and 0.0055% EDTA) for 10 min. at room temperature. After centrifugation, the cells were resuspended in 50 ΦL Wash Buffer and mixed with 1:500 dilution of an IgG2a antibody for 20 min. at 4EC, followed by incubation with 5-10 ΦL of anti-p24 antibody (KC57-FITC, available from Coulter) for 30 min. at 4EC. The cells were then washed twice with Wash Buffer and analyzed by flow cytometry.
One strategy selected for GSEs which suppressed productive infection of cells by HIV. The second strategy selected for GSEs which suppressed induction of the latent provirus in OM10.1 cells. When OM10.1 cells were treated with TNF-α and stained with an antibody specific for the cell surface molecule CD4, a rapid loss of CD4 expression was observed (FIG. 1). In contrast, the vast majority of the uninduced OM10.1 cells retained CD4 expression. It is believed that activation of the latent virus in OM10.1 cells by TNF-α leads to the production of viral protein gp120, which binds to cytoplasmic CD4, thereby preventing its translocation to the cell surface. A diminution of CD4^+ OM10.1 cells also correlates with an increased production of viral protein p24 in the cells following TNF-α induction.
OM10.1 cells were cultured in RPMI 1640 glucose-free media prior to and during incubation with NADH dehydrogenase inhibitors and TNF-á induction. The inhibitors were added to the cells followed by TNF-á induction 1-2 hours later. The expression of CD4 by the cells was assessed by anti-CD4 antibody staining and flow cytometry after 24 hour incubation at 37° C.

[2] = system: human peripheral blood leukocytes (PBLs); test: Uninfected human PBL controls with mofarotene alone (CD4, p24, CD3); type: cell-based; details: for % CD4^+ in population / % p24^− in CD4^− T population: HIV −; for % CD4^+ in population: CD3+ T cells of human PBLs; for % p24^− in CD4^− T population: human PBLs
Procedure: (§1) Human peripheral blood leukocytes (PBLs) were isolated using Ficoll-Hypaque density gradient separation. Cells were washed twice and resuspended in RPMI+10% FBS+2% human AB serum+penicillin/streptomycin/glutamine+100 Units/mL of IL-2 at a concentration of 0.5×10^6 cells/mL. PBLs were then activated with phytohemagglutinin at 0.5 μg/mL and placed in a humidified incubator at 37° C./5% CO2. After two days of activation, 10^6 cells were infected with HIV-1SF33 at TCID50 of 1000, in the presence of various concentrations of mofarotene: 0 μM, 1 μM, 0.5 μM, 0.1 μM, and 0.05 μM. A separate set of uninfected samples under identical concentrations of mofarotene were also maintained as controls. The samples were analyzed by flow cytometry at day 4 and day 6 post infection. The cells were gated for CD3 expression (for T cells). Then the expression of CD4 and viral p24 and CD4 was examined by bivariate dot plot.

HIV-1SF33 = test: Productive infection of activated human PBLs with HIV-1SF33, flow cytometry of CD3+ T cells; type: cell-based; details: for % CD4^+ in population / % p24+ cells among CD4+ T cells: HIV +, day 6; for % CD4^+ in population: CD3+ T cells of human PBLs; for % p24+ cells among CD4+ T cells: human PBLs
Procedure: as §1
In order to test the ability of a NADH dehydrogenase inhibitor to prevent productive infection of T cells by HIV, human PBLs were isolated and infected with HIVSF33 in the presence of various concentrations of mofarotene.

Q: For `C/C(=C\c1ccc(OCCN2CCOCC2)cc1)c1ccc2c(c1)C(C)(C)CCC2(C)C` [mofarotene, Mofarotene], which “cells that remained viable” value (OM10.1 cells) is on record?
A: greater than 80%

Q: What about the “cells that retained CD4 expression” value ([1]; 100 nM of mofarotene, TNF-α-induced OM10.1 cells) of the same compound?
A: 80%

Q: What about the “inhibition of induction of latent HIV provirus (retention of CD4 expression)” value ([1]; TNF-α-induced OM10.1 cells, 24 hour incubation, FIG. 5 / FIG. 6) of the same compound?
A: inhibited HIV-1 induction at even lower concentrations

Q: What about the “intracellular p24 levels” value ([1]; treated cells compared with untreated controls) of the same compound?
A: suppressed intracellular p24 levels

Q: What about the “% CD4^+ in population” value ([2]; mofarotene 0.05 μM, day 6) of the same compound?
A: 33%

Q: And the “% p24^− in CD4^− T population” value ([2]; mofarotene 0.05 μM, day 6)?
A: 0%

Q: What about the “% CD4^+ in population” value ([2]; mofarotene 0.1 μM, day 6) of the same compound?
A: 34%

Q: What about the “% p24^− in CD4^− T population” value ([2]; mofarotene 0.1 μM, day 6) of the same compound?
A: 0%

Q: What about the “% CD4^+ in population” value ([2]; mofarotene 0.5 μM, day 6) of the same compound?
A: 34%

Q: And the “% p24^− in CD4^− T population” value ([2]; mofarotene 0.5 μM, day 6)?
A: 0%

Q: What about the “% CD4^+ in population” value ([2]; mofarotene 1.0 μM, day 6) of the same compound?
A: 36%

Q: What about the “% p24^− in CD4^− T population” value ([2]; mofarotene 1.0 μM, day 6) of the same compound?
A: 0%

Q: What about the “expression level of CD3 on the cell surface” value ([2]; day 4) of the same compound?
A: nor did it alter the expression level of CD3 on the cell surface

Q: And the “percentage of CD4^+ T cells, mofarotene alone” value ([2]; day 4)?
A: did not significantly alter the percentage of CD4^+ T cells

Q: And the “expression level of CD3 on the cell surface” value ([2]; day 6)?
A: did not alter the expression level of CD3 on the cell surface

Q: What about the “increase of the percentage of CD4^+ T cells in uninfected samples by mofarotene alone” value ([2]; day 6, uninfected samples) of the same compound?
A: up to 4%

Q: What about the “% CD4^+ in population” value (HIV-1SF33; mofarotene 0.05 μM) of the same compound?
A: 18%

Q: What about the “% p24+ cells among CD4+ T cells” value (HIV-1SF33; mofarotene 0.05 μM) of the same compound?
A: 20.5%

Q: What about the “% CD4^+ in population” value (HIV-1SF33; mofarotene 0.1 μM) of the same compound?
A: 28%

Q: And the “% p24+ cells among CD4+ T cells” value (HIV-1SF33; mofarotene 0.1 μM)?
A: 11.4%

Q: And the “% CD4^+ in population” value (HIV-1SF33; mofarotene 0.5 μM)?
A: 24%

Q: What about the “% p24+ cells among CD4+ T cells” value (HIV-1SF33; mofarotene 0.5 μM) of the same compound?
A: 12.5%

Q: And the “% CD4^+ in population” value (HIV-1SF33; mofarotene 1.0 μM)?
A: 25%

Q: What about the “% p24+ cells among CD4+ T cells” value (HIV-1SF33; mofarotene 1.0 μM) of the same compound?
A: 10%

Q: What about the “% p24+ cells among CD4+ T cells” value (HIV-1SF33; mofarotene 1.0 μM, listed as Mofarotene) of the same compound?
A: 10%

Q: What about the “difference between HIV-infected PBLs with or without mofarotene” value (HIV-1SF33; day 4 post-infection) of the same compound?
A: little detectable difference

Q: And the “depletion of CD4^+ T cells by HIV infection” value (HIV-1SF33; day 6, 1 μM mofarotene)?
A: inhibited the depletion of CD4^+ T cells by HIV infection

Q: What about the “level of protection (percentage of p24+ CD4+ T cells and of CD4+ cells in CD3+ T cells) versus concentration” value (HIV-1SF33; day 6, 1 to 0.05 μM) of the same compound?
A: diminished with decreased concentrations of mofarotene
